Measured values: the supplement of paper PMC4977894
± gives the standard deviation of the averaged measurements.

Columns and labels:
[1] = tested on: Homo sapiens (human subject panel, olfactory perception); experiment: perceived odor familiarity rating (rating 0-100); higher = more familiar
In short: (§1)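 Values for familiarity, intensity and pleasantness are averaged over subjects. The panel of 55 healthy people aged 18–50 excluded the six lowest performers and rated each paraffin-oil dilution of a molecule at high and low concentrations. Ratings were made only for stimuli the subject reported smelling, on a slider converted to a 0–100 scale.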

[2] = tested on: Homo sapiens (human subject panel, olfactory perception); experiment: perceived odor pleasantness rating (rating 0-100); higher = more pleasant
In short: as §1

[3] = tested on: Homo sapiens (human subject panel, olfactory perception); experiment: perceived odor intensity rating (rating 0-100); higher = stronger perceived smell
In short: as §1

[4] = odor dilution in paraffin oil: 1/1,000
[5] = odor dilution in paraffin oil: 1/100,000
[6] = odor dilution in paraffin oil: 1/10
[7] = odor dilution in paraffin oil: 1/10,000,000

Compound: Cc1ccc(C(C)C)c(O)c1 [thymol]
- perceived odor familiarity rating [1, 4]: 55.8 ± 32
- perceived odor familiarity rating [1, 5]: 49.7 ± 29
- perceived odor pleasantness rating [2, 4]: 41.8 ± 27
- perceived odor pleasantness rating [2, 5]: 48.5 ± 24
- perceived odor intensity rating [3, 4]: 71.1 ± 23
- perceived odor intensity rating [3, 5]: 39.2 ± 30

Compound: C/C=C/C=C/CO [trans,trans-2,4-Hexadien-1-ol]
- perceived odor familiarity rating [1, 4]: 45.1 ± 32
- perceived odor familiarity rating [1, 5]: 36.4 ± 30
- perceived odor pleasantness rating [2, 4]: 48 ± 23
- perceived odor pleasantness rating [2, 5]: 49.6 ± 23
- perceived odor intensity rating [3, 4]: 45.5 ± 30
- perceived odor intensity rating [3, 5]: 14.4 ± 18

Compound: C/C=C/C=C/COC(C)=O [trans,trans-2,4-Hexadienyl acetate (replicate)]
- perceived odor familiarity rating [1, 6]: 30.4 ± 25
- perceived odor familiarity rating [1, 4]: 30.6 ± 27
- perceived odor pleasantness rating [2, 6]: 47.6 ± 22
- perceived odor pleasantness rating [2, 4]: 49.5 ± 25
- perceived odor intensity rating [3, 6]: 19.1 ± 20
- perceived odor intensity rating [3, 4]: 23.5 ± 26

Compound: C/C=C/C=C/COC(C)=O [trans,trans-2,4-Hexadienyl acetate]
- perceived odor familiarity rating [1, 6]: 24.8 ± 27
- perceived odor familiarity rating [1, 4]: 35.5 ± 27
- perceived odor pleasantness rating [2, 6]: 39.4 ± 25
- perceived odor pleasantness rating [2, 4]: 51.3 ± 24
- perceived odor intensity rating [3, 6]: 13.9 ± 24
- perceived odor intensity rating [3, 4]: 22 ± 23

Compound: CCC/C=C/COC(C)=O [trans-2-Hexenyl acetate]
- perceived odor familiarity rating [1, 4]: 52.4 ± 30
- perceived odor familiarity rating [1, 5]: 38.8 ± 26
- perceived odor pleasantness rating [2, 4]: 41.2 ± 30
- perceived odor pleasantness rating [2, 5]: 49 ± 24
- perceived odor intensity rating [3, 4]: 64.3 ± 27
- perceived odor intensity rating [3, 5]: 38.3 ± 30

Compound: CCCCC/C=C/CO [trans-2-Octen-1-ol]
- perceived odor familiarity rating [1, 4]: 46.4 ± 32
- perceived odor familiarity rating [1, 5]: 31 ± 31
- perceived odor pleasantness rating [2, 4]: 36.5 ± 28
- perceived odor pleasantness rating [2, 5]: 50.8 ± 22
- perceived odor intensity rating [3, 4]: 69.6 ± 26
- perceived odor intensity rating [3, 5]: 27.6 ± 28

Compound: C/C=C/c1ccc(OC)cc1 [trans-Anethole]
- perceived odor familiarity rating [1, 4]: 74 ± 26
- perceived odor familiarity rating [1, 5]: 40 ± 32
- perceived odor pleasantness rating [2, 4]: 62.1 ± 26
- perceived odor pleasantness rating [2, 5]: 51.3 ± 23
- perceived odor intensity rating [3, 4]: 64.3 ± 28
- perceived odor intensity rating [3, 5]: 30.8 ± 30

Compound: O=C(O)/C=C/c1ccccc1 [trans-Cinnamic acid]
- perceived odor familiarity rating [1, 6]: 51.5 ± 31
- perceived odor familiarity rating [1, 4]: 46.5 ± 32
- perceived odor pleasantness rating [2, 6]: 52.7 ± 30
- perceived odor pleasantness rating [2, 4]: 28.4 ± 28
- perceived odor intensity rating [3, 6]: 72.3 ± 23
- perceived odor intensity rating [3, 4]: 59.5 ± 30

Compound: CCC(=O)OC/C=C/c1ccccc1 [trans-Cinnamyl propionate]
- perceived odor familiarity rating [1, 4]: 45.5 ± 29
- perceived odor familiarity rating [1, 5]: 36.7 ± 28
- perceived odor pleasantness rating [2, 4]: 50.8 ± 23
- perceived odor pleasantness rating [2, 5]: 46.9 ± 24
- perceived odor intensity rating [3, 4]: 46.3 ± 30
- perceived odor intensity rating [3, 5]: 23.7 ± 29

Compound: CCCCCCCCCCC=O [undecanal]
- perceived odor familiarity rating [1, 4]: 47.9 ± 32
- perceived odor familiarity rating [1, 5]: 28.2 ± 25
- perceived odor pleasantness rating [2, 4]: 36.2 ± 26
- perceived odor pleasantness rating [2, 5]: 50 ± 21
- perceived odor intensity rating [3, 4]: 68.2 ± 28
- perceived odor intensity rating [3, 5]: 20.4 ± 26

Compound: CCCCCCCCCCC [undecane]
- perceived odor familiarity rating [1, 6]: 41.7 ± 32
- perceived odor familiarity rating [1, 4]: 35 ± 29
- perceived odor pleasantness rating [2, 6]: 32.3 ± 21
- perceived odor pleasantness rating [2, 4]: 53.3 ± 23
- perceived odor intensity rating [3, 6]: 56.4 ± 31
- perceived odor intensity rating [3, 4]: 21 ± 26

Compound: CCCCC=O [valeraldehyde]
- perceived odor familiarity rating [1, 5]: 43.7 ± 26
- perceived odor familiarity rating [1, 7]: 38.9 ± 28
- perceived odor pleasantness rating [2, 5]: 43 ± 25
- perceived odor pleasantness rating [2, 7]: 49.8 ± 26
- perceived odor intensity rating [3, 5]: 41.3 ± 30
- perceived odor intensity rating [3, 7]: 18.8 ± 22

Compound: CCCCC(=O)O [valeric acid]
- perceived odor familiarity rating [1, 5]: 31.6 ± 29
- perceived odor familiarity rating [1, 7]: 45.2 ± 34
- perceived odor pleasantness rating [2, 5]: 24.7 ± 22
- perceived odor pleasantness rating [2, 7]: 37.5 ± 23
- perceived odor intensity rating [3, 5]: 47.2 ± 29
- perceived odor intensity rating [3, 7]: 34.9 ± 32

Compound: COc1cc(C=O)ccc1O [vanillin]
- perceived odor familiarity rating [1, 6]: 82.6 ± 18
- perceived odor familiarity rating [1, 4]: 80.7 ± 21
- perceived odor pleasantness rating [2, 6]: 86.3 ± 15
- perceived odor pleasantness rating [2, 4]: 84 ± 20
- perceived odor intensity rating [3, 6]: 72.1 ± 23
- perceived odor intensity rating [3, 4]: 74.4 ± 22
